# According to paper PMC11250742, “Preclinical evaluation of CXCR4 peptides for targeted radionuclide therapy in glioblastoma” (EJNMMI Radiopharmacy and Chemistry, 2024):
# Where a SMILES comes first, the peptide text is derived from it. Bridges are numbered along the chain shown (N, C = ends). Roman numbers before positions name the chains, in order. [ ]: non-standard residue; d: D form. The star is where a group is joined. DOTA = O=C(O)CN1CCN(CC(=O)O)CCN(CC(=O)*)CCN(CC(=O)O)CC1
# Legend:
# Format in all cases: cell-based
# U87-CXCR4 + cells [1] = test: Cell membrane binding and internalisation assay
# Experimental: In the saturation binding assays, U87-CXCR4 + cells were seeded in 24-well plates and allowed to adhere. The night before the experiment, complete media was replaced with media containing 2% FBS. To determine the total binding, cells were treated with a mixture of each radiolabelled peptide (at final concentrations ranging from 0.1 to 1000 nM, corresponding to activity concentrations ranging from 0.005 to 50 MBq/mL) with 0.2% dimethyl sulfoxide (DMSO, vehicle). Non-specific binding (NSB) was verified by treating cells with a mixture of each radiolabelled peptide with 100 µM of AMD11070, a potent CXCR4 antagonist.
# After 4 h of incubation at 37 °C and 5% CO2, the unbound fraction was collected in gamma counter tubes, and the cells were washed twice with PBS. The wash fractions were added to the same gamma counter tubes. Next, cells were lysed by incubation with 1 M NaOH for 30 min at room temperature (RT). After collecting the lysed cell fractions, two washes with 1 M NaOH were performed, and added to the same fractions, corresponding to the total bound fractions.
# For the internalisation assay, 1 and 100 nM of the radiolabelled peptides were used. The membrane-bound fraction was separated from the internalised fraction by a 10 min incubation at RT with a stripping buffer of 50 mM glycine and 100 mM NaCl, pH 2.8. This was followed by lysis with 1 M NaOH as described above.
# The activities of all collected fractions were measured in an automated gamma counter. Activity measurements were converted to % added activity (%AA) and normalised for cell counts. A standard curve, obtained by measuring the treatment solutions, was used to convert the activity concentration to moles.
# U87-CXCR4 + cells [2] = test: MTS cell viability assay; settings: for cell viability: % of vehicle, mean ± SD
# Experimental: Cell viability assays were performed using increasing activity concentrations of the radiolabelled peptides (1 to 20 MBq/mL), incubated with U87-CXC4 + cells for four hours at 37 °C, 5% CO2. After the incubation period, cells were washed twice with PBS and replenished with complete media. After five and seven days of treatment, the cell media was removed and MTS (3-(4,5-dimethylthiazol-2-yl)-5-(3-carboxymethoxyphenyl)-2-(4-sulfophenyl)-2 H-tetrazolium) reagent added, prepared according to manufacturer’s instructions (CellTiter 96® AQueous One Solution Cell Proliferation Assay, Promega, Wisconsin, United States). To determine the effect of the radiation originating from unbound radiolabelled peptides, cells were treated with equivalent activity concentrations of [^177Lu]Lu-DTPA. Triton X-100 (0.1%) was used as a positive control. Vehicle includes the NaOAc radiolabeling buffer at the concentration used for the 20 MBq/mL peptide solutions. The cells were incubated for 0.5–1 h with the MTS reagent at 37 °C, 5% CO2. Absorbance was measured at 490 nm using a BioTek Synergy H1 plate reader (Agilent Technologies, Mechelen, Belgium). Cell viability was normalised to the vehicle and calculated as percentage of cell viability.
# U87-CXCR4 + cells [3] = test: Apoptosis live cell imaging (Annexin V, Caspase 3/7; IncuCyte); settings: day 5, 4 h, normalised to confluence and vehicle, N = 2
# Experimental: Apoptosis was measured using the IncuCyte® Zoom system (Essen Bioscience, Hertfordshire, UK).
# Briefly, cells were seeded in 96-well plates, and left to attach overnight at 37 °C, 5% CO2. Next, cells were treated with different activity concentrations of [^177Lu]Lu-DOTA-POL3026 or [^177Lu]Lu-DTPA, ranging from 1 to 20 MBq/mL. After four hours of incubation at 37 °C and 5% CO2, cells were washed twice with PBS. The Sartorius™ IncuCyte® dyes Caspase 3/7 green reagent and Annexin V red reagent were added at 1/2000 and 1/200 dilutions, respectively. Images were analysed using the IncuCyte® Zoom software. The average values of Green Calibrated Unit GCU x µm² (for Caspase 3/7) and Red Calibrated Units RCU x µm² (for Annexin V) signal were normalised to cell confluence percentages, five and seven days after treatment. Vehicle includes the NaOAc radiolabeling buffer at the concentration used for the 20 MBq/mL peptide solutions.
# U87-CXCR4 + cells [4] = test: DNA damage immunofluorescence (yH2AX / 53BP1)
# Experimental: DNA damage in U87-CXCR4 + cells was detected by immunofluorescent staining of the DNA damage and repair proteins, phospho-H2A histone family member X (yH2Ax) and p53-binding protein 1 (53BP1). Briefly, cells were seeded in 96-well plates and left overnight to adhere at 37 °C, 5% CO2. Next, cells were treated with different activity concentrations of [^177Lu]Lu-DOTA-POL3026 or [^177Lu]Lu-DTPA, ranging from 1 to 20 MBq/mL. After four hours of incubation, cells were washed twice with PBS, replenished with fresh media, and left at 37 °C, 5% CO2 until the fixation time point. For fixation, cells were washed with PBS, and fixed by incubating them with 4% paraformaldehyde (PFA) for 15 min at RT. This was done 0, 24 and 120 h after treatment. Cells were washed twice with PBS and stored in PBS at 4 °C until the residual radioactivity in the plate decayed. The vehicle includes the NaOAc radiolabeling buffer at the concentration used for the 20 MBq/mL peptide solutions.
# After decay storage, yH2Ax/53BP1 double staining was performed using the following protocol. First, cells were washed once with PBS-glycine and then permeabilised by washing them for 10 min with PBS-Triton X-100. […]
# Cells were imaged at 40x magnification using a BioTek Cytation 5 (Agilent Technologies, Mechelen, Belgium), where 4 fields were imaged per well, ensuring that at least a hundred cells were counted per condition. […]
smiles,measurement,setting,value
"CC(C)C[C@@H](N)C(=O)NCC(=O)N[C@H](C)C(=O)N[C@H](CO)C(=O)N[C@H](Cc1c[nH]c2ccccc12)C(=O)N[C@H](Cc1c[nH]cn1)C(=O)N[C@H](CCCNC(=N)N)C(=O)N1CCC[C@@H]1C(=O)N[C@H](CC(=O)O)C(=O)N[C@H](CCCCNC(=O)CN1CCN(CC(=O)O)CCN(CC(=O)O)CCN(CC(=O)O)CC1)C(=O)NCCCC[C@@H](NC(=O)[C@H]1CCCN1C(=O)[C@@H](CC(C)C)NC(=O)[C@H]1CCCN1C(=O)[C@@H](CCCNC(=N)N)NC(=O)[C@@H](CCCCN)NC(=O)[C@@H](CCC(N)=O)NC(=O)[C@@H](Cc1ccc(O)cc1)NC(=O)CNC(=O)[C@@H](CC(C)C)NC(=O)[C@@H](CS)NC(=O)[C@@H](CS)NC(=O)[C@@H](CCCCN)NC(=O)[C@@H](CC(=O)O)NC(=O)[C@H]1CCCN1C(=O)[C@@H](CCCNC(=N)N)NC(=O)[C@@H](Cc1c[nH]cn1)NC(=O)[C@@H](Cc1c[nH]c2ccccc12)NC(=O)[C@@H](CO)NC(=O)[C@@H](C)NC(=O)CNC(=O)[C@H](N)CC(C)C)C(N)=O [[^177Lu]Lu-DOTA-DV1-K-DV3, metal not drawn] (I: H-[dL]G[dA][dS][dW][dH][dR][dP][dD][dK][dC][dC][dL]G[dY][dQ][dK][dR][dP][dL][dP][dK]-NH2 / II: H-[dL]G[dA][dS][dW][dH][dR][dP][dD][dK](DOTA); amide I:22-II:C; N-terminus and C-terminus assumed)",added activity bound to the cell membrane,"U87-CXCR4 + cells [1]; 1 nM, 4 h, 37 °C, glycine stripping buffer pH 2.8, mean ± SD, N = 2",less than 1 %AA
same,added activity internalised,"U87-CXCR4 + cells [1]; 1 nM, 4 h, 37 °C, mean ± SD, N = 2",0.2 ± 0.02 %AA
same,reduction of binding in presence of 100 µM AMD11070 (specific binding),"U87-CXCR4 + cells [1]; 1 nM, stated after the internalised fractions",negligible
same,change of uptake (%AA) at 100 nM compared with 1 nM,U87-CXCR4 + cells [1]; incubation concentration 100 nM,did not significantly increase
O=C([O-])CN(CCN(CC(=O)[O-])CC(=O)[O-])CCN(CC(=O)[O-])CC(=O)[O-].[177Lu+3] [[^177Lu]Lu-DTPA],cell viability,"U87-CXCR4 + cells [2]; 1 MBq/mL, day not stated in the sentence (follows the day 7 statement)",90.9 ± 7.8%
same,cell viability,"U87-CXCR4 + cells [2]; day 5, 20 MBq/mL, 4 h incubation, N = 3–4",50.2 ± 10.4%
same,effect on cell viability,"U87-CXCR4 + cells [2]; day 7, 2 to 20 MBq/mL",statistically-significant reduction
same,Annexin V signal,U87-CXCR4 + cells [3]; 1 MBq/mL,1.4 ± 0.8 times the vehicle
same,Annexin V signal,U87-CXCR4 + cells [3]; 10 MBq/mL,3.3 ± 3.3 times the vehicle
same,increase of yH2AX,U87-CXCR4 + cells [4]; any of the activity concentrations (1–20 MBq/mL),did not result in an increase
same,increase in 53BP1,"U87-CXCR4 + cells [4]; any timepoint (0 h, 1 day, 5 days) after treatment",No statistically-significant increase
